Experimental data taken from patent US20090111820A1, “FUSED PYRROLIDINE 1,2,4-TRIAZOLE DERIVATIVES AS MODULATORS OF MGLUR5” (priority 2007, published 2009).

How the values were obtained:
[1] = molecular target: T1, human mGluR5d (Homo sapiens, UniProt P41594); assay: FLIPR assay, mGluR5 antagonism (intracellular calcium mobilization); format: cell-based; settings: cells expressing human mGluR5d; fluo-3 calcium signal; read-out: FLIPR hmGluR5d
T1 construct: expressed in transfected cells; It is kept under hygromycin B and Zeocin selection; The separate IP3 assay names GHEK cells
From the text: Functional Assessment of mGluR5 Antagonism in Cell Lines Expressing mGluR5D
The properties of the compounds of the invention can be analyzed using standard assays for pharmacological activity. Examples of glutamate receptor assays are well known in the art as described in for example Aramori et al., Neuron 8:757 (1992), Tanabe et al., Neuron 8:169 (1992), Miller et al., J. Neuroscience 15: 6103 (1995), Balazs, et al., J. Neurochemistry 69:151 (1997). The methodology described in these publications is incorporated herein by reference. Conveniently, the compounds of the invention can be studied by means of an assay (FLIPR) that measures the mobilization of intracellular calcium, [Ca^2+], in cells expressing mGluR5 or another assay (IP3) that measures inositol phosphate turnover.
Cells expressing human mGluR5d as described in WO97/05252 cultured in a mixture of high glucose DMEM with Glutamax (31966-021) (500 mL), 10% dialyzed fetal bovine serum (Hyclone #SH30079.03) (56 mL), 200 μg/mL Hygromycin B (Invitrogen 45-0430, 50 mg/mL)(2.2 mL), 200 μg/mL Zeocin (Invitrogen #R250-01; 100 mg/mL)(1.1 mL) are seeded at a density of 100,000 cells per well on collagen coated clear bottom 96-well plates with black sides and cells were allowed to adhere over night before experiments. All assays are done in a buffer containing 146 mM NaCl, 5 mM KCl, 1 mM MgCl2, 1 mM CaCl2, 20 mM HEPES, 1 mg/mL glucose and 1 mg/mL BSA Fraction IV (pH 7.4). Cell cultures in the 96-well plates are loaded for 60 minutes in the above mentioned buffer containing 6 μM of the acetoxymethyl ester form of the fluorescent calcium indicator fluo-3 (Molecular Probes, Eugene, Oreg.) in 0.025% pluronic acid (a proprietary, non-ionic surfactant polyol -CAS Number 9003-11-6). Following the loading period the fluo-3buffer is removed and replaced with fresh assay buffer. FLIPR experiments are done using a laser setting of 0.700 W and a 0.4 second CCD camera shutter speed with excitation and emission wavelengths of 488 nm and 562 nm, respectively. Each experiment is initiated with 160 μl of buffer present in each well of the cell plate. A 40 μl addition from the antagonist plate was followed by a 50 μL addition from the agonist plate. A 30 minutes, in dark at 25° C., interval separates the antagonist and agonist additions. The fluorescence signal is sampled 50 times at 1-second intervals followed by 3 samples at 5-second intervals immediately after each of the two additions. Responses are measured as the difference between the peak heights of the response to agonist, less the background fluorescence within the sample period. IC50 determinations are made using a linear least squares fitting program.

[2] = Determination of brain to plasma ratio in rat; format: in vivo; settings: brain and plasma, female Sprague Dawley rats, read-out: Brain/Plasma Ratio of compound in Rat
Procedure: Determination of Brain to Plasma Ratio in Rat
Brain to plasma ratios are estimated in female Sprague Dawley rats. The compound is dissolved in water or another appropriate vehicle. For determination of brain to plasma ratio the compound is administrated as a subcutaneous, or an intravenous bolus injection, or an intravenous infusion, or an oral administration. At a predetermined time point after the administration a blood sample is taken with cardiac puncture. The rat is terminated by cutting the heart open, and the brain is immediately retained. The blood samples are collected in heparinized tubes and centrifuged within 30 minutes, in order to separate the plasma from the blood cells. The plasma is transferred to 96-well plates and stored at −20° C. until analysis. The brains are divided in half, and each half is placed in a pre-tarred tube and stored at −20° C. until analysis. Prior to the analysis, the brain samples are thawed and 3 mL/g brain tissue of distilled water is added to the tubes. The brain samples are sonicated in an ice bath until the samples are homogenized. Both brain and plasma samples are precipitated with acetonitrile. After centrifugation, the supernatant is diluted with 0.2% formic acid. Analysis is performed on a short reversed-phase HPLC column with rapid gradient elution and MSMS detection using a triple quadrupole instrument with electrospray ionisation and Selected Reaction Monitoring (SRM) acquisition. Liquid-liquid extraction may be used as an alternative sample clean-up. The samples are extracted, by shaking, to an organic solvent after addition of a suitable buffer. An aliquot of the organic layer is transferred to a new vial and evaporated to dryness under a stream of nitrogen. After reconstitution of the residuals the samples are ready for injection onto the HPLC column.

T1 sequence (P41594 21-942 isoform P41594-3 limits assumed): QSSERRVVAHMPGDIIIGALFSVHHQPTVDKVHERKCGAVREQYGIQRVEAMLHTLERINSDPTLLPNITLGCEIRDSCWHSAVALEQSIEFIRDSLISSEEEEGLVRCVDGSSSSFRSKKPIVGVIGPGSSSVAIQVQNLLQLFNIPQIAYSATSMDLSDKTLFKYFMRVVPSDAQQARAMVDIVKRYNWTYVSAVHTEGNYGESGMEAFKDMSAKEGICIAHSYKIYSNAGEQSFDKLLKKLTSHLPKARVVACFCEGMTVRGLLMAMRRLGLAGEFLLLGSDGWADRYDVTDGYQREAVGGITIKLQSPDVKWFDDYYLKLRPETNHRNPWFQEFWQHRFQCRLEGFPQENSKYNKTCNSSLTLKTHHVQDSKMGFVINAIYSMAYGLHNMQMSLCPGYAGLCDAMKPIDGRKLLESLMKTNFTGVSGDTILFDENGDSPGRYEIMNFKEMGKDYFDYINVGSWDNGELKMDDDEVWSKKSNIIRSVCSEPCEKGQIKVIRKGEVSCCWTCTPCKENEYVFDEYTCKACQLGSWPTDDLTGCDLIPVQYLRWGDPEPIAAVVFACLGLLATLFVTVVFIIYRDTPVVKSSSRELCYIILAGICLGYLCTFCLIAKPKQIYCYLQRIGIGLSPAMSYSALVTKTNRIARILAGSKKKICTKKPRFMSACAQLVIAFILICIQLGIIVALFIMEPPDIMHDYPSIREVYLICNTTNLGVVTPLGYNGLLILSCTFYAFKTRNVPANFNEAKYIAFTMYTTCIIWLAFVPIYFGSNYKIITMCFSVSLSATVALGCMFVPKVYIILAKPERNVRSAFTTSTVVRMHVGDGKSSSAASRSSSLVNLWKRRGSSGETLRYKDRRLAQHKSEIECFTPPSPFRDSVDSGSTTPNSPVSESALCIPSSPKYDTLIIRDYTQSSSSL

Row | IC50 [1] [nM] | Kp [2] | SMILES
1 | 39 | < 0.01 | Cn1c(-c2ccn(C)c(=O)c2)nnc1N1[C@@H](c2cc(-c3cccc(Cl)c3)on2)C[C@H]2C[C@H]21 [Example 13.4, 4-(5-{(1R,3R,5R)-3-[5-(3-Chlorophenyl)isoxazol-3-yl]-2-azabicyclo[3.1.0]hex-2-yl}-4-methyl-4H-1,2,4-triazol-3-yl)-1-methylpyridin-2(1H)-one]
2 | 71 | – | Cc1cccc(-c2cc([C@H]3C[C@H]4C[C@H]4N3c3nnc(-c4cn[nH]c(=O)c4)n3C)no2)c1 [Example 13.3, 5-(4-Methyl-5-{(1R,3R,5R)-3-[5-(3-methylphenyl)isoxazol-3-yl]-2-azabicyclo[3.1.0]hex-2-yl}-4H-1,2,4-triazol-3-yl)pyrimidin-3(2H)-one]
3 | 51 | – | Cn1c(-c2ccn(C)c(=O)c2)nnc1N1C[C@H]2C[C@H]2[C@@H]1c1cc(-c2cccc(Cl)c2)on1 [Example 13.8, 4-(5-{(1R,2R,5S)-2-[5-(3-Chlorophenyl)isoxazol-3-yl]-3-azabicyclo[3.1.0]hex-3-yl}-4-methyl-4H-1,2,4-triazol-3-yl)-1-methylpyridin-2(1H)-one]
4 | 73 | 0.01 | Cc1cccc(-c2cc([C@H]3C[C@H]4C[C@H]4N3c3nnc(-c4ccn(C)c(=O)c4)n3C)no2)c1 [Example 13.1, 1-Methyl-4-(4-methyl-5-{(1R,3R,5R)-3-[5-(3-methylphenyl)isoxazol-3-yl]-2-azabicyclo[3.1.0]hex-2-yl}-4H-1,2,4-triazol-3-yl)pyridin-2(1H)-one]
5 | 46 | – | Cn1c(-c2cn[nH]c(=O)c2)nnc1N1C[C@H]2C[C@H]2[C@@H]1c1cc(-c2cccc(Cl)c2)on1 [Example 13.9, 5-(5-{(1R,2R,5S)-2-[5-(3-Chlorophenyl)isoxazol-3-yl]-3-azabicyclo[3.1.0]hex-3-yl}-4-methyl-4H-1,2,4-triazol-3-yl)pyridazin-3(2H)-one]
6 | 32 | < 0.01 | Cn1c(-c2cn[nH]c(=O)c2)nnc1N1[C@@H](c2cc(-c3cccc(Cl)c3)on2)C[C@H]2C[C@H]21 [Example 13.6, 5-(5-{(1R,3R,5R)-3-[5-(3-Chlorophenyl)isoxazol-3-yl]-2-azabicyclo[3.1.0]hex-2-yl}-4-methyl-4H-1,2,4-triazol-3-yl)pyridazin-3(2H)-one]
7 | 131 | – | Cc1cccc(-c2cc([C@H]3C[C@H]4C[C@H]4N3c3nnc(-c4cc[nH]c(=O)n4)n3C)no2)c1 [Example 13.2, 4-(4-Methyl-5-{(1R,3R,5R)-3-[5-(3-methylphenyl)isoxazol-3-yl]-2-azabicyclo[3.1.0]hex-2-yl}-4H-1,2,4-triazol-3-yl)pyrimidin-2(1H)-one]
8 | 14 | – | Cn1c(-c2ccc(C(N)=O)cc2)nnc1N1[C@@H](c2cc(-c3cccc(Cl)c3)on2)C[C@H]2C[C@H]21 [Example 13.5, 4-(5-{(1R,3R,5R)-3-[5-(3-Chlorophenyl)isoxazol-3-yl]-2-azabicyclo[3.1.0]hex-2-yl}-4-methyl-4H-1,2,4-triazol-3-yl)benzamide]
